These results are taken from patent US12544392B2, “Treatment of adenovirus infection or disease associated with adenovirus infection” (SymBio Pharmaceuticals Limited, priority 2023, dated 2026).

This data set is described as follows: Human clinical study of once-weekly IV BCV (Example 4): adverse events. The following applies: cohort 4: 0.4 mg/kg (20 mg/dose if body weight ≥50 kg) IV once weekly. The data set is classed as in vivo. As to the method: The study duration is at least 9 weeks, based on a screening period of 1 week, a treatment period of at least 4 weeks, and post-treatment follow-up period of 30 days. In the screening, after informed consent has been obtained from the patients, a screening evaluation is conducted to determine eligibility for the study. On the first day of the first week of the treatment period, patients are assigned a dose based on the applicable cohort (see the section 4.1.3 Cohorts 4-6 above). The duration of treatment is a minimum of 4 weeks and a maximum of 14 weeks, and termination is based on the treatment stopping criteria as described below. For patients who, at the physician's discretion, are assessed as being at high risk for AdV infection/recurrence of disease, the treatment period may be extended for up to 10 weeks, even after the 4-week treatment period is completed, if the AdV is not detected by the two most recent consecutive assays with an interval of 3 days at least. All patients are followed up for 30 days after the last dosing. Adverse events are evaluated according to the National Cancer Institute Common Terminology Criteria for Adverse Events (NCI CTCAE) version 5.0 (grade 1-5). In cohort 4, patients are enrolled in the initially planned dosing regimen of 0.4 mg/kg or 20 mg IV weekly. […]

As for `CCCCCCCCCCCCCCCCOCCCOP(=O)(O)CO[C@H](CO)Cn1ccc(N)nc1=O` [BCV, [(2S)-1-(4-amino-2-oxopyrimidin-1-yl)-3-hydroxypropan-2-yl]oxymethyl-(3-hexadecoxypropoxy)phosphinic acid], the “occurrence of adverse events” value is listed as “particularly suppressed”.
